For one assay, the system named is 4T1 breast cancer cells. In words: In vivo efficacy in 4T1 breast cancer syngeneic model. The following applies: 100 mg/kg BID oral. Also noted: species or system Balb/c mice. As for the experimental part:
In vivo efficacy studies were performed on 4T1 syngeneic tumor model of Balb/c mice implanted orthotopically in the mammary gland. One hundred thousand 4T1 breast cancer cells (ATCC® CRL-2539™)] were implanted orthotopically within the mammary gland of 7 weeks old Balb/c mice (day 0). Animals were randomized based on tumor size when tumor average reached 60 mm^3 (between day 7 and 11) into different treatment cohorts. The test compound was administered orally twice per day (approximately at 9 am and […]) starting the day of randomization. The test compounds were suspended into Methocel™ cellulose ether vehicle and sonicated before oral administration to animals using gavage needles. Treatment was administered daily until the end of the study. All experimental animals were monitored for body weight changes twice weekly. Tumor volume was measured twice a week by a caliper device and calculated with the following formula: Tumor volume=0.5×(length×width^2). Studies were terminated before tumor volumes reached […]. TGI (% tumor growth inhibition) was determined as […]

Assay [1] deals with PancO2 pancreas cancer cells. In words: In vivo efficacy in PancO2 pancreatic cancer syngeneic model. The conditions noted are these: 200 mg/kg BID oral. Also on record: species or system C57/Bl6 mice. As for the experimental part: In vivo efficacy studies were performed on PancO2 syngeneic tumor model of C57/Bl6 mice implanted sub-cutaneously. Five millions PancO2 pancreas cancer cells were implanted sub-cutaneously to 7 weeks old C57/Bl6 mice (day 0). Animals were randomized based on tumor size when tumor average reached 60 mm^3 (between day 10 and 12) into different treatment cohorts. The Compound was administered orally twice per day (approximately at 9 am and 5 pm) starting the day of randomization. The test compound shown below in the table was suspended into Methocel® vehicle and sonicated before oral administration to animals using gavage needles. Treatment was administered daily until the end of the study. All experimental animals were monitored for body weight changes weekly. Tumor volume was measured weekly using a caliper device and calculated with the following formula: Tumor volume=0.5×(length×width^2). Studies were terminated before tumor volumes reached […]. TGI (% tumor growth inhibition) was determined as
Treatment was administered daily until the end of the study. Tumor volume was measured weekly using a caliper device and calculated with the following formula: Tumor volume=0.5×(length×width^2). Mice were considered as dead when tumor size reached 400 mm^3. […] SEM refers to standard error of measurement.

In another assay the target is mouse TDO2 (Mus musculus (Mouse), UniProt P48776). In words: TDO2 activity assay in P815 mouseTDO2 clone 12 cells. Type of assay: cell-based. The protocol: P815 mTDO2 c112 cells were generated as described in Pilotte et al, Proc Natl Acad Sci, 109(7): 2497-2502 (2012). They were seeded in 96-well plates (50,000 cells/well), treated with increasing concentrations of compounds and incubated for 16-18 h. Kynurenine concentrations were determined as described above. The reaction was run with single replicate.
mouse TDO2, sequence (P48776 whole entry): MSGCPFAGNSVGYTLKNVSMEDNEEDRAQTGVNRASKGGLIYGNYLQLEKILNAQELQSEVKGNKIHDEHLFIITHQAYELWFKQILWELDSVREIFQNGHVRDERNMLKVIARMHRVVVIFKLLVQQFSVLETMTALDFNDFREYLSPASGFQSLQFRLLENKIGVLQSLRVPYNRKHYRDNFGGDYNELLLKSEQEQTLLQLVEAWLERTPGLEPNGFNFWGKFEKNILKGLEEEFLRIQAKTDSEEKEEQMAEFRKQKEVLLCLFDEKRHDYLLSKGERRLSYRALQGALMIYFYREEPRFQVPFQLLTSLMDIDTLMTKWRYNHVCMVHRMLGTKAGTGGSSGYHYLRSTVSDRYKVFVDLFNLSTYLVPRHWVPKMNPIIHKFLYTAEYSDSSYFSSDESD

By IC50 is commonly meant the concentration that inhibits the measured activity by half.

As to `O=C1CC(c2c[nH]c3ccc(F)cc23)C(=O)N1` (racemic) [Compound 1, 3-(5-fluoro-1H-indol-3-yl)pyrrolidine-2,5-dione], the “Mean tumor volume on day 25” value in the assay on 4T1 breast cancer cells was found to be 443.7 mm^3. For the same compound, the “TGI (Tumor growth inhibition)” value in the assay with 4T1 breast cancer cells (day 25) is listed as 43.4%; in assay [1] (day 42), 26.2%. The “Mean tumor volume on day 42” value in assay [1] was 457.0 mm^3. On mouse TDO2, this compound yielded an IC50 greater than 50 µM.

The record behind these values is patent US10945994B2, “Combinations comprising a pyrrolidine-2,5-dione IDO1 inhibitor and an anti-body” (Pfizer Inc., priority 2015, dated 2021).
